Laboratory results reported in patent publication US11535621B2, “Heterobicyclic amides as inhibitors of CD38” (Ribon Therapeutics, Inc., priority 2019, dated 2022).

Biological target: Human CD38 (Homo sapiens (Human), UniProt P28907)
Assay: CD38 enzyme assay
Assay type: biochemical
Conditions: 2 nM CD38, NAD+ substrate, absorbance at 405 nm
Description: [formula] where SUBcmpd is the subtracted value for the individual compound treated well, SUBmin is the average of the subtracted values of the 4-(((1r,4r)-4-(2-methoxyethoxy)cyclohexyl)amino)-1-methyl-6-(thiazol-5-yl)quinolin-2(1H)-one positive control wells and SUBmax is the average of the subtracted values of the DMSO negative control wells.
The % inhibition values were plotted as a function of compound concentration and the following 4-parameter fit was applied to derive the IC50 values:
[formula] where top and bottom are normally allowed to float, but may be fixed at 100 or 0 respectively in a 3-parameter fit. The Hill Coefficient is normally allowed to float but may also be fixed at 1 in a 3-parameter fit. Y is the % inhibition and X is the compound concentration.

Sequence of Human CD38 (P28907 whole entry): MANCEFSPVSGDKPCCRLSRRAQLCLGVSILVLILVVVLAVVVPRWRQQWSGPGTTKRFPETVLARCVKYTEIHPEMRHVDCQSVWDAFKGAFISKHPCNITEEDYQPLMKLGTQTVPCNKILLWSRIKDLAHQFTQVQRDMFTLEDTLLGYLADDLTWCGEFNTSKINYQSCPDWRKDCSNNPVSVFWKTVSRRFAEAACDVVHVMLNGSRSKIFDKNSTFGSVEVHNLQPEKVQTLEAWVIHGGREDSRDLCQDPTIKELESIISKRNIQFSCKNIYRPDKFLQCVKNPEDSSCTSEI

IC50 [nM] | SMILES
10 to 100 | CC1(F)CN([C@H]2CC[C@H](NC(=O)c3nc(-n4ccnc4)nc4cn[nH]c34)CC2)C1 [Example 257, N-((1r,4r)-4-(3-fluoro-3-methylazetidin-1-yl)cyclohexyl)-5-(1H-imidazol-1-yl)-1H-pyrazolo[4,3-d]pyrimidine-7-carboxamide]
10 to 100 | CC(=O)N1CC2CC1CC2NC(=O)c1nc(-n2ccnc2)nc2cc[nH]c12 (centres unmarked) [Example 172]
10 to 100 | CC(C)(O)[C@H]1C[C@H](NC(=O)c2nc(-n3ccnc3)nc3cn[nH]c23)C1 [Example 265, N-((1r,3r)-3-(2-hydroxypropan-2-yl)cyclobutyl)-5-(1H-imidazol-1-yl)-1H-pyrazolo[4,3-d]pyrimidine-7-carboxamide]
10 to 100 | COCCN1CCc2cc(NC(=O)c3nc(-n4ccnc4)nc4cc[nH]c34)ccc2C1 [Example 179]
10 to 100 | O=C(N[C@H]1CC[C@H](NCC(F)(F)F)CC1)c1nc(-n2ccnc2)cc2ccsc12 [Example 270, 5-(1H-imidazol-1-yl)-N-((1r,4r)-4-((2,2,2-trifluoroethyl)amino)cyclohexyl)thieno[2,3-c]pyridine-7-carboxamide]
10 to 100 | N#CC1CN([C@H]2CC[C@H](NC(=O)c3nc(-n4ccnc4)cc4cn[nH]c34)CC2)C1 [Example 269, N-((1r,4r)-4-(3-cyanoazetidin-1-yl)cyclohexyl)-5-(1H-imidazol-1-yl)-1H-pyrazolo[3,4-c]pyridine-7-carboxamide]
10 to 100 | CC(F)(F)CN[C@H]1CC[C@H](NC(=O)c2nc(-n3ccnc3)nc3cc[nH]c23)CC1 [Example 235, N-((1r,4r)-4-((2,2-difluoropropyl)amino)cyclohexyl)-2-(1H-imidazol-1-yl)-5H-pyrrolo[3,2-d]pyrimidine-4-carboxamide]
10 to 100 | CC(C)(N[C@H]1CC[C@H](NC(=O)c2nc(-n3ccnc3)nc3cn[nH]c23)CC1)C(F)(F)F [Example 276, 5-(1H-imidazol-1-yl)-N-((1r,4r)-4-((1,1,1-trifluoro-2-methylpropan-2-yl)amino)cyclohexyl)-1H-pyrazolo[4,3-d]pyrimidine-7-carboxamide]
10 to 100 | C[C@@H](O)CO[C@H]1CC[C@H](NC(=O)c2nc(-n3ccnc3)cc3cn[nH]c23)CC1 (single isomer, unassigned) [Example 208]
10 to 100 | C[C@H](O)COC1CCC(NC(=O)c2nc(-n3ccnc3)nc3cc[nH]c23)CC1 (stereo partly drawn) [Example 125b, N-((1R,4r)-4-((S)-2-hydroxypropoxy)cyclohexyl)-2-(1H-imidazol-1-yl)-5H-pyrrolo[3,2-d]pyrimidine-4-carboxamide]
< 10 | O=C(Nc1ccc2c(c1)CNC2)c1nc(-n2ccnc2)nc2cc[nH]c12 [Example 211, 2-(1H-imidazol-1-yl)-N-(isoindolin-5-yl)-5H-pyrrolo[3,2-d]pyrimidine-4-carboxamide]
10 to 100 | CC(C)(O)[C@H]1C[C@H](NC(=O)c2nc(-n3ccnc3)cc3cn[nH]c23)C1 [Example 266, N-((1r,3r)-3-(2-hydroxypropan-2-yl)cyclobutyl)-5-(1H-imidazol-1-yl)-1H-pyrazolo[3,4-c]pyridine-7-carboxamide]
< 10 | N#CCO[C@H]1CC[C@H](NC(=O)c2nc(-n3ccnc3)cc3cn[nH]c23)CC1 [Example 215, N-((1r,4r)-4-(cyanomethoxy)cyclohexyl)-5-(1H-imidazol-1-yl)-1H-pyrazolo[3,4-c]pyridine-7-carboxamide]
10 to 100 | O=C(N[C@H]1CC[C@H](N2CCOCC2)CC1)c1nc(-n2ccnc2)nc2cc[nH]c12 [Example 155]
100 to 1000 | C[C@]1(NCC(F)(F)F)CC[C@H](NC(=O)c2nc(-n3ccnc3)cc3cn[nH]c23)CC1 [Example 240, 5-(1H-imidazol-1-yl)-N-((1r,4r)-4-methyl-4-((2,2,2-trifluoroethyl)amino)cyclohexyl)-1H-pyrazolo[3,4-c]pyridine-7-carboxamide]
< 10 | N#Cc1ccc(NC(=O)c2nc(-n3ccnc3)nc3cc[nH]c23)cc1 [Example 130]
10 to 100 | CNC(=O)C[C@H]1CC[C@H](NC(=O)c2nc(-n3ccnc3)cc3cn[nH]c23)CC1 [Example 199, 5-(1H-imidazol-1-yl)-N-((1r,4r)-4-(2-(methylamino)-2-oxoethyl)cyclohexyl)-1H-pyrazolo[3,4-c]pyridine-7-carboxamide]
10 to 100 | COC(C)(C)[C@H]1CC[C@H](NC(=O)c2nc(-n3ccnc3)nc3cc[nH]c23)CC1 [Example 187]
< 10 | O=C(Nc1ccc2c(c1)CNC2)c1nc(-n2ccnc2)cc2cn[nH]c12 [Example 236, 5-(1H-imidazol-1-yl)-N-(isoindolin-5-yl)-1H-pyrazolo[3,4-c]pyridine-7-carboxamide]
10 to 100 | O=C(N[C@H]1CC[C@H](NCCC(F)(F)F)CC1)c1nc(-n2ccnc2)nc2ccsc12 [Example 222, 2-(1H-imidazol-1-yl)-N-((1r,4r)-4-((3,3,3-trifluoropropyl)amino)cyclohexyl)thieno[3,2-d]pyrimidine-4-carboxamide]

More lines, now with the values behind:

SMILES | IC50 [nM]
O=C(N[C@H]1CCCOC1)c1nc(-n2ccnc2)nc2cc[nH]c12 (single isomer, unassigned) [Example 28a] | 10 to 100
O=C(NCc1c(F)cccc1C(F)(F)F)c1cc(-n2ccnc2)nc2cn[nH]c12 [Example 15, N-(2-Fluoro-6-(trifluoromethyl)benzyl)-5-(1H-imidazol-1-yl)-1H-pyrazolo[4,3-b]pyridine-7-carboxamide] | 100 to 1000
COCCO[C@H]1CC[C@H](NC(=O)c2cc(-c3cncs3)nc3cn[nH]c23)CC1 [Example 17, N-((1r,4r)-4-(2-Methoxyethoxy)cyclohexyl)-5-(thiazol-5-yl)-1H-pyrazolo[4,3-b]pyridine-7-carboxamide] | 100 to 1000
O=C(Nc1ccccc1)c1nc(-n2ccnc2)nc2cc[nH]c12 [Example 82, 2-(1H-Imidazol-1-yl)-N-phenyl-5H-pyrrolo[3,2-d]pyrimidine-4-carboxamide] | < 10
O=C(N[C@@H]1CCCOC1)c1nc(-n2ccnc2)nc2cc[nH]c12 (single isomer, unassigned) [Example 28b] | < 10
CNC(=O)CO[C@H]1CC[C@H](NC(=O)c2nc(-n3ccnc3)nc3cc[nH]c23)CC1 [Example 80, 2-(1H-Imidazol-1-yl)-N-((1r,4r)-4-(2-(methylamino)-2-oxoethoxy)cyclohexyl)-5H-pyrrolo[3,2-d]pyrimidine-4-carboxamide] | 10 to 100
CC1(C#N)CN([C@H]2CC[C@@H](NC(=O)c3nc(-n4ccnc4)cc4cn[nH]c34)CC2)C1 [Example 259, N-((1s,4s)-4-(3-cyano-3-methylazetidin-1-yl)cyclohexyl)-5-(1H-imidazol-1-yl)-1H-pyrazolo[3,4-c]pyridine-7-carboxamide] | 100 to 1000
O=C(N[C@H]1CC[C@H](C(F)(F)F)CC1)c1nc(-n2ccnc2)nc2ccsc12 [Example 121, 2-(1H-imidazol-1-yl)-N-((1r,4r)-4-(trifluoromethyl)cyclohexyl)thieno[3,2-d]pyrimidine-4-carboxamide] | < 10
Cn1cnc(NC(=O)c2nc(-n3ccnc3)nc3cc[nH]c23)c1 [Example 95, 2-(1H-Imidazol-1-yl)-N-(1-methyl-1H-imidazol-4-yl)-5H-pyrrolo[3,2-d]pyrimidine-4-carboxamide] | 10 to 100
CNCCO[C@H]1CC[C@H](NC(=O)c2nc(-n3ccnc3)nc3cc[nH]c23)CC1 [Example 71, 2-(1H-Imidazol-1-yl)-N-((1r,4r)-4-(2-(methylamino)ethoxy)cyclohexyl)-5H-pyrrolo[3,2-d]pyrimidine-4-carboxamide] | 10 to 100
O=C(Nc1ccccn1)c1nc(-n2ccnc2)nc2cc[nH]c12 [Example 81, 2-(1H-Imidazol-1-yl)-N-(pyridin-2-yl)-5H-pyrrolo[3,2-d]pyrimidine-4-carboxamide] | < 10
COCCO[C@H]1CC[C@H](NC(=O)c2cc(-c3cncs3)cc3nc(C)[nH]c23)CC1 [Example 13, N-((1r,4r)-4-(2-Methoxyethoxy)cyclohexyl)-2-methyl-5-(thiazol-5-yl)-1H-benzo[d]imidazole-7-carboxamide] | 100 to 1000
O=C(N[C@H]1CC[C@@H](NCC(F)F)CC1)c1nc(-n2ccnc2)nc2cc[nH]c12 [Example 106, N-((1s,4s)-4-((2,2-difluoroethyl)amino)cyclohexyl)-2-(1H-imidazol-1-yl)-5H-pyrrolo[3,2-d]pyrimidine-4-carboxamide] | 100 to 1000
COCCO[C@H]1CC[C@H](NC(=O)c2cc(-c3cncs3)cc3cc(C)[nH]c23)CC1 [Example 45, N-((1r,4r)-4-(2-Methoxyethoxy)cyclohexyl)-2-methyl-5-(thiazol-5-yl)-1H-indole-7-carboxamide] | 100 to 1000
COCCOc1cccc(NC(=O)c2nc(-n3ccnc3)nc3cc[nH]c23)c1 [Example 100, 2-(1H-Imidazol-1-yl)-N-(3-(2-methoxyethoxy)phenyl)-5H-pyrrolo[3,2-d]pyrimidine-4-carboxamide] | < 10
O=C(NC1CCOC1)c1nc(-n2ccnc2)nc2cc[nH]c12 (centres unmarked) [Example 91, 2-(1H-Imidazol-1-yl)-N-(tetrahydrofuran-3-yl)-5H-pyrrolo[3,2-d]pyrimidine-4-carboxamide] | < 10
Cc1cc2cc(-c3cncs3)cc(C(=O)NCc3c(F)cccc3C(F)(F)F)c2[nH]1 [Example 11, N-(2-Fluoro-6-(trifluoromethyl)benzyl)-2-methyl-5-(thiazol-5-yl)-1H-indole-7-carboxamide] | 10 to 100
O=C(N[C@@H]1CCNC[C@H]1F)c1nc(-n2ccnc2)nc2cc[nH]c12 [Example 123b, N-((3R,4R)-3-fluoropiperidin-4-yl)-2-(1H-imidazol-1-yl)-5H-pyrrolo[3,2-d]pyrimidine-4-carboxamide] | 100 to 1000
